ChEMBL document CHEMBL3885861, “Open TG-GATES”

Species: Rattus norvegicus
Assay: Open TG-GATES - Regimen: Single
Type: toxicity, organism-based, Sprague-Dawley
Design: regimen Single, gender Male, age 6 weeks
Settings: in vivo, po, 2 mg/kg, route gavage, dose level Low; for APTT / Bas / Eos / Fbg / Hb / Lym / MCH / MCHC / MCV / Mono / Neu / PT / Plat / RBC / Ret / WBC: tissue Blood; for KIDNEY_L / KIDNEY_R / KIDNEY_TOTAL: tissue Kidney; for LIVER: tissue Liver; for ALP / ALT / AST / BUN / CRE / Ca / Cl / DBIL / GLC / IP / K / LDH / Na / PL / RALB / TBIL / TC / TG / TP / gamma-GTP: tissue Plasma

For `OCCN1CCN(CCCN2c3ccccc3Sc3ccc(C(F)(F)F)cc32)CC1` [FLUPHENAZINE], the TERMINAL_BW (3 h) was 193.4 g, the APTT (3 h) was 16.5 s and the Bas (3 h) was 0%. The Eos (3 h) was 0.8%, the Fbg (3 h) was 231.2 mg/dL and the Hb (3 h) was 13.2 g/dL. It also gave a Lym (3 h) of 76.6%, an MCH (3 h) of 21.9 pg and an MCHC (3 h) of 33.2%. It also gave an MCV (3 h) of 65.9 fL, a Mono (3 h) of 8.2% and a Neu (3 h) of 14.6%. It also gave a PT (3 h) of 12.5 s, a Plat (3 h) of 111 x10_4/uL and an RBC (3 h) of 605.2 x10_4/ul. It also gave a Ret (3 h) of 7.9%, a WBC (3 h) of 105.8 x10_2/uL and a KIDNEY_L (3 h) of 0.9 g. It also gave a KIDNEY_R (3 h) of 0.9 g, a KIDNEY_TOTAL (3 h) of 1.8 g and an LIVER (3 h) of 8.9 g. The ALP (3 h) was 678.4 IU/L, the ALT (3 h) was 29.6 IU/L and the AST (3 h) was 56.4 IU/L. It also gave a BUN (3 h) of 10.8 mg/dL, a CRE (3 h) of 0.5 mg/dL and a Ca (3 h) of 10.5 mg/dL. It also gave a Cl (3 h) of 105.2 meq/L, a DBIL (3 h) of 0.012 mg/dL and a GLC (3 h) of 193.4 mg/dL. The IP (3 h) was 10.4 mg/dL, the K (3 h) was 4.8 meq/L and the LDH (3 h) was 84 IU/L. It also gave a Na (3 h) of 137.8 meq/L, a PL (3 h) of 148 mg/dL and an RALB (3 h) of 3.9 g/dL. The TBIL (3 h) was 0.3 mg/dL, the TC (3 h) was 88.8 mg/dL and the TG (3 h) was 40 mg/dL. The TP (3 h) was 5.6 g/dL, the gamma-GTP (3 h) was 2.4 IU/L and the TERMINAL_BW (6 h) was 197 g. It also gave an APTT (6 h) of 16.5 s, a Bas (6 h) of 0% and an Eos (6 h) of 0.8%. The Fbg (6 h) was 220.8 mg/dL, the Hb (6 h) was 13 g/dL and the Lym (6 h) was 75.4%. It also gave an MCH (6 h) of 21.5 pg, an MCHC (6 h) of 33% and an MCV (6 h) of 65.3 fL. It also gave a Mono (6 h) of 8.6%, a Neu (6 h) of 15.6% and a PT (6 h) of 12.4 s. For the same molecule, the Plat (6 h) was 113.3 x10_4/uL, the RBC (6 h) was 606.4 x10_4/ul and the Ret (6 h) was 8.7%. It also gave a WBC (6 h) of 86.8 x10_2/uL, a KIDNEY_L (6 h) of 0.9 g and a KIDNEY_R (6 h) of 0.9 g. For the same molecule, the KIDNEY_TOTAL (6 h) was 1.8 g, the LIVER (6 h) was 8.5 g and the ALP (6 h) was 708.4 IU/L. For the same molecule, the ALT (6 h) was 32.4 IU/L, the AST (6 h) was 57.2 IU/L and the BUN (6 h) was 10.2 mg/dL. For the same molecule, the CRE (6 h) was 0.5 mg/dL, the Ca (6 h) was 10.2 mg/dL and the Cl (6 h) was 105.8 meq/L. The DBIL (6 h) was 0.002 mg/dL, the GLC (6 h) was 184.2 mg/dL and the IP (6 h) was 10.2 mg/dL. The K (6 h) was 4.8 meq/L, the LDH (6 h) was 84.8 IU/L and the Na (6 h) was 136.8 meq/L. For the same molecule, the PL (6 h) was 150.6 mg/dL, the RALB (6 h) was 3.7 g/dL and the TBIL (6 h) was 0.4 mg/dL. For the same molecule, the TC (6 h) was 92.4 mg/dL, the TG (6 h) was 33.6 mg/dL and the TP (6 h) was 5.3 g/dL. It also gave a gamma-GTP (6 h) of 2.2 IU/L, a TERMINAL_BW (9 h) of 192.1 g and an APTT (9 h) of 16.7 s. It also gave a Bas (9 h) of 0%, an Eos (9 h) of 0.6% and a Fbg (9 h) of 223 mg/dL. The Hb (9 h) was 13.1 g/dL, the Lym (9 h) was 74.2% and the MCH (9 h) was 21.6 pg. It also gave an MCHC (9 h) of 33%, an MCV (9 h) of 65.5 fL and a Mono (9 h) of 6.6%. The Neu (9 h) was 19%, the PT (9 h) was 12.3 s and the Plat (9 h) was 113.3 x10_4/uL. It also gave an RBC (9 h) of 609.2 x10_4/ul, a Ret (9 h) of 7.9% and a WBC (9 h) of 62.2 x10_2/uL. The KIDNEY_L (9 h) was 0.9 g, the KIDNEY_R (9 h) was 0.9 g and the KIDNEY_TOTAL (9 h) was 1.8 g. The LIVER (9 h) was 8.1 g, the ALP (9 h) was 829.8 IU/L and the ALT (9 h) was 27.4 IU/L. For the same molecule, the AST (9 h) was 54.4 IU/L, the BUN (9 h) was 9 mg/dL and the CRE (9 h) was 0.5 mg/dL. For the same molecule, the Ca (9 h) was 9.9 mg/dL, the Cl (9 h) was 104.4 meq/L and the DBIL (9 h) was 0.022 mg/dL. For the same molecule, the GLC (9 h) was 176.8 mg/dL, the IP (9 h) was 10 mg/dL and the K (9 h) was 4.5 meq/L. It also gave an LDH (9 h) of 81.6 IU/L, a Na (9 h) of 137.2 meq/L and a PL (9 h) of 135.4 mg/dL. For the same molecule, the RALB (9 h) was 3.6 g/dL, the TBIL (9 h) was 0.3 mg/dL and the TC (9 h) was 79.4 mg/dL. It also gave a TG (9 h) of 33.2 mg/dL, a TP (9 h) of 5.3 g/dL and a gamma-GTP (9 h) of 2.2 IU/L. The TERMINAL_BW (24 h) was 213 g, the APTT (24 h) was 17 s and the Bas (24 h) was 0%. The Eos (24 h) was 0.8%, the Fbg (24 h) was 209.8 mg/dL and the Hb (24 h) was 13.1 g/dL. The Lym (24 h) was 86.2%, the MCH (24 h) was 21.7 pg and the MCHC (24 h) was 33.2%. It also gave an MCV (24 h) of 65.4 fL, a Mono (24 h) of 4% and a Neu (24 h) of 9.2%. For the same molecule, the PT (24 h) was 12.2 s, the Plat (24 h) was 117 x10_4/uL and the RBC (24 h) was 605.6 x10_4/ul. For the same molecule, the Ret (24 h) was 7.7%, the WBC (24 h) was 112.3 x10_2/uL and the KIDNEY_L (24 h) was 0.9 g. It also gave a KIDNEY_R (24 h) of 0.9 g, a KIDNEY_TOTAL (24 h) of 1.9 g and an LIVER (24 h) of 10.8 g. For the same molecule, the ALP (24 h) was 934.6 IU/L, the ALT (24 h) was 32.6 IU/L and the AST (24 h) was 56.6 IU/L. The BUN (24 h) was 22.2 mg/dL, the CRE (24 h) was 0.5 mg/dL and the Ca (24 h) was 11 mg/dL. The Cl (24 h) was 104.2 meq/L, the DBIL (24 h) was 0.014 mg/dL and the GLC (24 h) was 178.8 mg/dL. The IP (24 h) was 7.5 mg/dL, the K (24 h) was 5.1 meq/L and the LDH (24 h) was 92.8 IU/L. It also gave a Na (24 h) of 136.6 meq/L, a PL (24 h) of 166.6 mg/dL and an RALB (24 h) of 4.1 g/dL. For the same molecule, the TBIL (24 h) was 0.3 mg/dL, the TC (24 h) was 82.6 mg/dL and the TG (24 h) was 139.2 mg/dL. The TP (24 h) was 6 g/dL and the gamma-GTP (24 h) was 1.6 IU/L.
